In PubChem BioAssay (NCI):
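Interpolation was linear, between the two tested concentrations surrounding the appropriate level; five concentrations were tested over 48 hours in 96-well plates. TGI denotes the concentration required for complete inhibition of growth.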

What was measured:
Assay in all cases: NCI anticancer screen, dose series, 48 h
OVCAR-5 ovarian = test system: OVCAR-5 ovarian
SK-MEL-28 melanoma = test system: SK-MEL-28 melanoma
DMS 273 small cell lung = test system: DMS 273 small cell lung
SW-620 colon = test system: SW-620 colon
UACC-257 melanoma = test system: UACC-257 melanoma
HOP-18 NSCLC = test system: HOP-18 NSCLC
HOP-92 NSCLC = test system: HOP-92 NSCLC
DLD-1 colon = test system: DLD-1 colon
HCC-2998 colon = test system: HCC-2998 colon
SF-295 CNS = test system: SF-295 CNS
COLO 205 colon = test system: COLO 205 colon
RPMI-8226 leukemia = test system: RPMI-8226 leukemia
NCI-H460 lung = test system: NCI-H460 lung
HL-60(TB) leukemia = test system: HL-60(TB) leukemia
NCI-H226 lung = test system: NCI-H226 lung
SF-539 CNS = test system: SF-539 CNS
UO-31 renal = test system: UO-31 renal
A549 NSCLC = test system: A549 NSCLC
IGROV1 ovarian = test system: IGROV1 ovarian
M14 melanoma = test system: M14 melanoma
SNB-75 CNS = test system: SNB-75 CNS
UACC-62 melanoma = test system: UACC-62 melanoma
MALME-3M melanoma = test system: MALME-3M melanoma
LXFL 529 NSCLC = test system: LXFL 529 NSCLC
OVCAR-3 ovarian = test system: OVCAR-3 ovarian
SK-MEL-2 melanoma = test system: SK-MEL-2 melanoma
SNB-78 CNS = test system: SNB-78 CNS
ACHN renal = test system: ACHN renal
KM20L2 colon = test system: KM20L2 colon
RXF 393 renal = test system: RXF 393 renal
CCRF-CEM leukemia = test system: CCRF-CEM leukemia
M19-MEL melanoma = test system: M19-MEL melanoma
SNB-19 CNS = test system: SNB-19 CNS
NCI-H23 lung = test system: NCI-H23 lung
HCT-116 colon = test system: HCT-116 colon
EKVX NSCLC = test system: EKVX NSCLC
LOX IMVI melanoma = test system: LOX IMVI melanoma
OVCAR-4 ovarian = test system: OVCAR-4 ovarian
NCI-H522 lung = test system: NCI-H522 lung
K-562 leukemia = test system: K-562 leukemia
786-0 renal = test system: 786-0 renal
HT29 colon = test system: HT29 colon
A498 renal = test system: A498 renal
SF-268 CNS = test system: SF-268 CNS
SK-OV-3 ovarian = test system: SK-OV-3 ovarian
OVCAR-8 ovarian = test system: OVCAR-8 ovarian
CAKI-1 renal = test system: CAKI-1 renal
KM12 colon = test system: KM12 colon
MOLT-4 leukemia = test system: MOLT-4 leukemia
TK-10 renal = test system: TK-10 renal
DMS 114 small cell lung = test system: DMS 114 small cell lung
HCT-15 colon = test system: HCT-15 colon
SK-MEL-5 melanoma = test system: SK-MEL-5 melanoma
HOP-62 NSCLC = test system: HOP-62 NSCLC
U251 CNS = test system: U251 CNS
SR leukemia = test system: SR leukemia
SN12C renal = test system: SN12C renal
XF 498 CNS = test system: XF 498 CNS

Measured: TGI

CCCCCC(/C=C/[C@@H]1[C@H]2CC(=O)O[C@H]2C[C@H]1N1CCOCC1)OC1CCCO1 (some centres not stated)
> 100 µM: OVCAR-5 ovarian | SK-MEL-28 melanoma | DMS 273 small cell lung | SW-620 colon | UACC-257 melanoma | HOP-18 NSCLC | HOP-92 NSCLC | DLD-1 colon | HCC-2998 colon | SF-295 CNS | COLO 205 colon | RPMI-8226 leukemia | NCI-H460 lung | HL-60(TB) leukemia | NCI-H226 lung | SF-539 CNS | UO-31 renal | A549 NSCLC | IGROV1 ovarian | M14 melanoma | SNB-75 CNS | UACC-62 melanoma | MALME-3M melanoma | LXFL 529 NSCLC | OVCAR-3 ovarian | SK-MEL-2 melanoma | SNB-78 CNS | ACHN renal | KM20L2 colon | RXF 393 renal | CCRF-CEM leukemia | M19-MEL melanoma | SNB-19 CNS | NCI-H23 lung | HCT-116 colon | EKVX NSCLC | LOX IMVI melanoma | OVCAR-4 ovarian | NCI-H522 lung | K-562 leukemia | 786-0 renal | HT29 colon | A498 renal | SF-268 CNS | SK-OV-3 ovarian | OVCAR-8 ovarian | CAKI-1 renal | KM12 colon | MOLT-4 leukemia | TK-10 renal | DMS 114 small cell lung | HCT-15 colon | SK-MEL-5 melanoma | HOP-62 NSCLC | U251 CNS

CC1CCC2(OC1)OC1CC3C4CCC5CC(O)CCC5(C)C4CC(=O)OC3(C)C1C2C (configuration not stated)
> 100 µM: OVCAR-5 ovarian | SK-MEL-28 melanoma | DMS 273 small cell lung | SW-620 colon | UACC-257 melanoma | HOP-18 NSCLC | HOP-92 NSCLC | DLD-1 colon | HCC-2998 colon | SF-295 CNS | COLO 205 colon | RPMI-8226 leukemia | NCI-H460 lung | HL-60(TB) leukemia | SF-539 CNS | UO-31 renal | A549 NSCLC | IGROV1 ovarian | M14 melanoma | SNB-75 CNS | UACC-62 melanoma | MALME-3M melanoma | LXFL 529 NSCLC | OVCAR-3 ovarian | SK-MEL-2 melanoma | SNB-78 CNS | ACHN renal | KM20L2 colon | RXF 393 renal | CCRF-CEM leukemia | M19-MEL melanoma | SNB-19 CNS | NCI-H23 lung | HCT-116 colon | EKVX NSCLC | LOX IMVI melanoma | OVCAR-4 ovarian | NCI-H522 lung | K-562 leukemia | 786-0 renal | HT29 colon | A498 renal | SR leukemia | SF-268 CNS | SK-OV-3 ovarian | OVCAR-8 ovarian | CAKI-1 renal | KM12 colon | SN12C renal | MOLT-4 leukemia | TK-10 renal | DMS 114 small cell lung | HCT-15 colon | SK-MEL-5 melanoma | HOP-62 NSCLC | U251 CNS

COc1nc2c(nc(N)n2C2OC(CO)C(O)C(O)C2O)c(=O)[nH]1 (configuration not stated)
> 100 µM: SK-MEL-28 melanoma | SW-620 colon | UACC-257 melanoma | HOP-18 NSCLC | HOP-92 NSCLC | DLD-1 colon | HCC-2998 colon | SF-295 CNS | COLO 205 colon | NCI-H460 lung | HL-60(TB) leukemia | NCI-H226 lung | SF-539 CNS | UO-31 renal | A549 NSCLC | IGROV1 ovarian | M14 melanoma | SNB-75 CNS | UACC-62 melanoma | MALME-3M melanoma | LXFL 529 NSCLC | OVCAR-3 ovarian | SNB-78 CNS | ACHN renal | KM20L2 colon | XF 498 CNS | RXF 393 renal | CCRF-CEM leukemia | M19-MEL melanoma | SNB-19 CNS | NCI-H23 lung | HCT-116 colon | EKVX NSCLC | LOX IMVI melanoma | OVCAR-4 ovarian | NCI-H522 lung | K-562 leukemia | 786-0 renal | HT29 colon | A498 renal | SR leukemia | SF-268 CNS | SK-OV-3 ovarian | OVCAR-8 ovarian | CAKI-1 renal | KM12 colon | SN12C renal | TK-10 renal | SK-MEL-5 melanoma | HOP-62 NSCLC | U251 CNS
